Assay [1] has as its system Ehrlich ascites cancer cells. Nature of the assay: Life-prolonging effect for mice suffering from Ehrlich ascites cancer. The format is in vivo, mice (ICR/JCL). Particulars: for Life prolongation rate: average survival days, control group indexed as 100; for life-prolonging effect for mice with Ehrlich ascites cancer (in words): in comparison with the control mice. As for the experimental part:
The mice of ICR/JCL species (.male., 5-week-old, 5 mice per group) were intraperitoneally inoculated with 2,000,000 pieces of Ehrlich ascites cancer cells, and the compounds of this invention were administered, starting 2 hours after inoculation, in the dosages shown in Table 5 below once a day for a total period of 10 days.
the drug treated groups as calculated with the average number of survival
days of the control group being indexed as 100.

Another assay has as its system HeLa S3 cells. Nature of the assay: Inhibitory effect against growth of HeLa S3 cells (in vitro). The format is cell-based. Particulars: for IC50: 72 h, HeLa S3 cells, read-out: ID50 (the source's name); for inhibitory effect against growth of cancer (HeLa) cells (in words): low concentration. The method, then:
The roots (0.3 kg by half-dry weight), stalks (1.6 kg by half-dry weight) and leaves (2.1 kg by half-dry weight) were ground and extracted respectively with methanol. Each liquid extract was filtered and the filtrate was concentrated under reduced pressure to obtain an oily residue containing the object compounds.
(Note) The inhibitory effect against growth of the HeLa cells was determined in the manner described below.
The HeLa S3 cells were spread on 6 cm-diameter plastic laboratory plates in the amount of 0.7×10^5 cells/plate and cultured by using an MEM medium containing 60 μg/ml of kanamycin and 10% calf serum. 2 days later, the medium was replaced with one containing the compounds of this invention. The cell population at that time was 1.58×10^5 cells/plat. After addition of the compounds, the cells were cultured for three days, and then, after removing the medium, the culture was washed with a physiological saline solution, treated with 0.05% trypsin at room temperature for about 15 minutes, and then pipetted and dispersed. The number of surviving cells was counted by a […], and percent inhibition was measured by counting the number of the living cells in the control section to determine ID50. [formula]

The mark [2] stands for this setting: 7.50 mg/kg once a day for 10 days.
[3] abbreviates: 15.0 mg/kg once a day for 10 days.

≈ marks a conversion by molar mass, not a printed value.

The inhibition is the drop in the measured response relative to a control, in per cent. Consider `C=C1C(=O)OC2C=C(C)C(OC(C)=O)CC=C(C)CC(OC(=O)C(=CCO)CO)C12` (stereo not shown) [Compound I], for which the figures for the Life prolongation rate in assay [1] (setting [2]) and in assay [1] (setting [3]) were 253 and 232, respectively. In addition, the “life-prolonging effect for mice with Ehrlich ascites cancer (in words)” value in assay [1] is given as “prominent life-prolonging effect”. For the same compound, the IC50 in the assay on HeLa S3 cells (Homo sapiens, 3 days) was 1.4 µg/mL (≈ 3.33 µM). In addition, the inhibition at 1 µg/mL with HeLa S3 cells (Homo sapiens, HeLa S3, 72 h, 1 μg/ml, 3 days, read-out: Percent inhibition) was 29.4%. In the assay with HeLa S3 cells (Homo sapiens, HeLa S3, 72 h, 2 μg/ml, 3 days, read-out: Percent inhibition), the inhibition at 2 µg/mL came out at 74.9%. Besides, the inhibition at 4 µg/mL in the assay on HeLa S3 cells (Homo sapiens, HeLa S3, 72 h, 4 μg/ml, 3 days, read-out: Percent inhibition) turned out to be 100%. For the same compound, the “inhibitory effect against growth of cancer (HeLa) cells (in words)” value in the assay on HeLa S3 cells is “high inhibitory effect against growth of the cancer cells”.

`C=C1C(=O)OC2C=C(C)C(OC(C)=O)CC=C(C)CC(O)C12` (stereo not shown) [III]: the values for the Life prolongation rate in assay [1] (setting [2]) and in assay [1] (setting [3]) were 95 and 108, respectively. In addition, the “effect of compound III compared with compounds I and II (in words)” value in assay [1] (mouse, in vivo) was “not so conspicuous in effect as the compounds I and II”.

As to `C=C1C(=O)OC2C=C(C)C(OC(C)=O)CC=C(C)CC(OC(=O)C(C)=CCO)C12` (stereo not shown) [II], the Life prolongation rate in assay [1] (setting [2]) is listed as 159; in assay [1] (setting [3]) it was 173. Besides, the “life-prolonging effect for mice with Ehrlich ascites cancer (in words)” value in assay [1] is listed as “prominent life-prolonging effect”. Moreover, in the assay with HeLa S3 cells (Homo sapiens, 3 days), the IC50 was found to be 0.62 µg/mL (≈ 1.53 µM). In addition, the inhibition at 0.375 µg/mL with HeLa S3 cells (Homo sapiens, HeLa S3, 72 h, 0.375 μg/ml, 3 days, read-out: Percent inhibition) came out at 28.4%. In addition, in the assay with HeLa S3 cells (Homo sapiens, HeLa S3, 72 h, 0.75 μg/ml, 3 days, read-out: Percent inhibition), the inhibition at 0.75 µg/mL was found to be 57%. The inhibition at 1.5 µg/mL in the assay with HeLa S3 cells (Homo sapiens, HeLa S3, 72 h, 1.5 μg/ml, 3 days, read-out: Percent inhibition) turned out to be 100%. In addition, the “inhibitory effect against growth of cancer (HeLa) cells (in words)” value with HeLa S3 cells is given as “high inhibitory effect against growth of the cancer cells”.

Source of the values: patent US4215049A, “Antitumorigenic lactone derivative” (Nippon Kayaku Kabushiki Kaisha, priority 1977, dated 1980).
